Consider three compounds from patent US20250352535A1, “MDM2 DEGRADERS AND USES THEREOF” (Kymera Therapeutics, Inc., priority 2022, published 2025).

Structures are written as SMILES.

A short description of data set [1]: Aqueous solubility of drug substance. The following applies: aqueous media over pH 3 to 8, aqueous buffer, pH range between 3 to 8. The format is physicochemical. As to the method:
(§1) Compound A for injection was manufactured as a concentrated frozen solution containing 10 mg/mL of free base intended to be diluted with an intravenous (IV) infusion vehicle (normal saline, 0.9% sodium chloride, injection). […] To achieve drug concentration of 10 mg/mL, formulation development focused on identifying acceptable pharmaceutical solvents, surfactants, and pH modifiers to achieve the required solubility of Compound A.

The next data set can be described thus: Measured pKa. The format is physicochemical. Particulars: free base. As to the method:
as §1

The next data set is described as follows: Measured Log D. Particulars: free base. The format is physicochemical.
Data set [2] can be described thus: Solubility/stability screening in IV excipients. It counts as physicochemical. The source says:
Initial solubility screening of Compound A focused on using different enabling excipients suitable for IV administration. The screening included surfactants, cosolvents, and pH modifiers (i.e., glacial acetic acid, and hydrochloric acid). […] As a result, the selected formulation to support the GLP toxicology study was comprised of 30% propylene glycol, 3% Solutol HS15, and 0.01 M in acetate buffer at pH 5±0.2.
The clinical formulation development was centered on using organic concentrates without water to avoid hydrolysis of Compound A. Additional solubility and stability evaluations of Compound A were conducted with different types of co-solvents and surfactants with and without butylated hydroxytoluene as antioxidant.

Data set [3] has as its system panel of solid and hematological tumor cell lines. The data set can be described thus: Cell growth inhibition across tumor cell line panel. Particulars: versus MDM2 small molecule inhibitors (SMIs). The format is cell-based. The protocol: (§2) All cell lines were cultured according to recommended procedures unless otherwise noted. For growth inhibition assays, cells were treated with compounds for indicated time points. Viability was assessed using Promega® CellTiter-Glo® assay, and apoptosis was assessed using Promega® Caspase-Glo® 3/7 assay. Cell cycle arrest and/or apoptosis in response to single agent or combination treatment was assessed using flow cytometry analysis on cells treated for 24h.

In data set [4] the test system is acute lymphoblastic leukemia (ALL) cell line RS4;11. The data set can be described thus: MDM2/p53 pathway and apoptosis in RS4;11 cells. It counts as cell-based.
The next data set concerns MOLM-13 cell line. Description: Combination apoptosis and cell killing in MOLM-13. The format is cell-based. Particulars: combination with venetoclax and midostaurin. As to the method: as §2
Data set [5] concerns multiple heme indications (AML, T cell lymphomas, mantle cell lymphoma, DLBCL). The data set can be described thus: In vitro activity across heme indications. It counts as cell-based. The following applies: mantle cell lymphoma and DLBCL most sensitive. The protocol:
as §2

Data set [6] relates to CTG-2227 AML patient-derived xenograft (PDX) model. The data set can be described thus: AML PDX model CTG-2227. It counts as in vivo, mice. The following applies: 1 mg/kg, Q3W, IV. As to the method:
(§3) AML patient cells from leukapheresis were intravenously (IV) injected and established in immunocompromised host strain mice. Surrogate animals were used to determine the level of engraftment targeting a threshold of ˜20% huCD45+ cells in BM. Mice were randomized on study and treatment was initiated. Vehicle and Compound A, 1 mg/kg were administered IV, every three weeks for six weeks (total of two doses of Compound A). At study end, whole blood, bone marrow and spleen were assessed by flow cytometry.

Another data set has as its system CTG-2240 AML PDX model. The data set can be described thus: AML PDX model CTG-2240. The format is in vivo, mice. Particulars: 1 mg/kg, Q3W, IV. The protocol: as §3
A further data set concerns CTG-2700 AML PDX model. The data set can be described thus: AML PDX model CTG-2700. Particulars: 1 mg/kg, Q3W, IV. It counts as in vivo, mice. The protocol: as §3
Data set [7] relates to hCD45+ cells in bone marrow and AML blasts. The data set can be described thus: Flow cytometry of AML PDX models. The format is in vivo, mice. Particulars: 1 mg/kg, Q3W. The protocol: as §3
For orientation: In flow cytometry, cells or beads pass a laser one at a time.

The test system of a further data set is MOLM-13 xenograft model. The data set can be described thus: MOLM-13 xenograft combination study. It counts as in vivo.
The test system of data set [8] is OCI-LY10 p53^WT ABC-subtype DLBCL xenograft model. Description: OCI-LY10 DLBCL xenograft. The format is in vivo.
The test system of data set [9] is TMD8 p53^MUT ABC-subtype DLBCL xenograft model. Description: TMD8 DLBCL xenograft. The format is in vivo.
In a further data set the test system is RS4;11 ALL model. Description: RS4;11 ALL xenograft efficacy. The following applies: for median survival: n=6 animals/group. The format is in vivo, NOD/SCID mice. As to the method:
(§4) RS4;11 and MV4;11 tumors were established subcutaneously in the hind flank of NOD/SCID mice. Mice were randomized and treated with Compound A as either a single pulse dose or weekly for 3 weeks at doses matched for total AUC. MDM2 SMI DS-3032 (Milademetan) was dosed at its clinically equivalent dose and regimen of 3 days on/11 days off. Pharmacodynamic effects were assessed at mRNA level by RT-qPCR and protein level by quantitative targeted mass spectrometry and immunohistochemistry.

The test system of the next data set is MV4;11 AML model. The data set can be described thus: MV4;11 AML xenograft efficacy. The format is in vivo, NOD/SCID mice. As to the method: as §4
In a further data set the target is T1, MDM2 (Homo sapiens, UniProt Q00987).
T1 construct: RS4;11 and MV4;11 tumors were established subcutaneously in the hind flank of NOD/SCID mice; endogenous in cells; host or cells: RS4;11 xenograft tumors in NOD/SCID mice
T1 sequence (Q00987 whole entry): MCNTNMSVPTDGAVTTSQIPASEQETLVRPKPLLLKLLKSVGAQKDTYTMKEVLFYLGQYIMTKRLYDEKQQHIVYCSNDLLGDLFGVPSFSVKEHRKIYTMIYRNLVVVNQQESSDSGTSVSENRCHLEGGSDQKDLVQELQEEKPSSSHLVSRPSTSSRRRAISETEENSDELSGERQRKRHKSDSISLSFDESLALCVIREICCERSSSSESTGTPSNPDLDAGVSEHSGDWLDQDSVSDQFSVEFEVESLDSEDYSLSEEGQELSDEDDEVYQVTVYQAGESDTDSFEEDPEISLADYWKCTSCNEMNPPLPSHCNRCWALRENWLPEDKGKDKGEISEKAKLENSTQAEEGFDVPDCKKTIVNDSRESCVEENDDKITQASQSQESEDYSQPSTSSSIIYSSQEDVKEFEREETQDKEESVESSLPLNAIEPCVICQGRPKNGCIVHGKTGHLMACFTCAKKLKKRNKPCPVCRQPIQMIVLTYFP
The data set can be described thus: Targeted proteomic analysis of RS4;11 tumors: MDM2. The format is in vivo, NOD/SCID mice. Particulars: one hour post dosing. The protocol:
as §4

The subject of data set [10] is p53 pathway (p53, p21, PHLDA3). Description: Targeted proteomic analysis of RS4;11 tumors: p53 pathway biomarkers. The format is in vivo, NOD/SCID mice. The protocol:
as §4

Data set [11] relates to p53 pathway and cleaved caspase-3 (CC-3) in RS4;11 tumors. Description: IHC analysis of RS4;11 tumors. The following applies: n=3/group. It counts as in vivo, NOD/SCID mice. The protocol:
as §4

In data set [12] the test system is p53 pathway and cleaved caspase-3 (CC-3) in MV4;11 tumors. Description: IHC analysis of MV4;11 tumors. It counts as in vivo, NOD/SCID mice. The following applies: n=3/group. As to the method: as §4
Data set [13] deals with apoptotic gene BBC3 in RS4;11 tumors. Description: qPCR analysis of RS4;11 tumors. The format is in vivo, NOD/SCID mice. As to the method:
as §4
In general terms: In qPCR the cycle at which signal appears reflects the starting amount.

As usually defined, the solubility is the dissolved amount per volume that the medium holds. Lower therefore signals a poorly soluble substance. What is called pKa is the negative logarithm of the acid dissociation constant. Low values mean a stronger acid or weaker base, high ones a weaker acid or stronger base. In general, logD refers to lipophilicity at a set pH, counting ionised and neutral species. A higher logD goes with a more lipophilic compound.

On to `Cn1c(=O)n(C2CCC(=O)NC2=O)c2ccc(C3CCN(C(=O)[C@H]4CC[C@H](NC(=O)[C@@H]5NC6(CCCCC6)[C@@]6(C(=O)Nc7cc(Cl)ccc76)[C@H]5c5cccc(Cl)c5F)CC4)CC3)cc21` (stereo partly drawn) [Compound A, (3′R,4′S,5′R)-6″-chloro-4′-(3-chloro-2-fluorophenyl)-N-((1R,4R)-4-(4-(1-(2,6-dioxopiperidin-3-yl)-3-methyl-2-oxo-2,3-dihydro-1H-benzo[d]imidazol-5-yl)piperidine-1-carbonyl)cyclohexyl)-2″-oxodispiro[cyclohexane-1,2′-pyrrolidine-3′,3″-indoline]-5′-carboxamide], for which the solubility in data set [1] is below 0.01 mg/mL; in data set [2] (formulations containing propylene glycol, polyethylene glycol 400, Solutol HS15 and polysorbate 80 at low pH) it was “significantly enhanced”. Also, the pKa in “Measured pKa” is 5. The pH-dependent lipophilicity (logD) in the data set “Measured Log D” was above 3.7. In data set [2] (combination of polyethylene glycol 400, ethanol, polysorbate 80 and butylated hydroxytoluene, 10 mg/mL), the solubility and stability entry is “sufficient solubility and stability”. Besides, in data set [3], the “cell growth inhibition compared to SMIs” value is reported as above 200 fold. Further, the “effect on p53-dependent upregulation of MDM2 protein levels” value in [4] (compared with reversible SMIs) is “can overcome the p53-dependent upregulation of MDM2 protein levels”. In addition, in data set [4] (pulsed dose, mediated through p53 target genes), the “apoptosis in washout experiments” value was “can lead to apoptosis”. For the same compound, in [4] (short 2 hour exposures, versus SMIs), the p53 stabilization result is recorded as “more potently stabilize p53 than SMIs”. Besides, in the data set on MOLM-13 cell line, the “induction of apoptosis and cell killing” value was “enhances induction of apoptosis and cell killing”. In data set [5], the in vitro activity result is given as “active across multiple heme indications”. The tumor response entry is given as “tumor regression” in [6]; “partial responses” in the data set on CTG-2240 AML PDX model; “partial responses” in the data set on CTG-2700 AML PDX model; “tumor stasis” in the data set on RS4;11 ALL model (exposure-matched weekly dosing); “tumor regression” in the data set on RS4;11 ALL model (single doses). Besides, the “hCD45+ cells in bone marrow and AML blasts” value in [7] was “significantly reduces”. Moreover, in the data set with MOLM-13 xenograft model (single dose of Compound A in combination with daily dosing of venetoclax), the anti-tumor activity result is on record as “sustained tumor regression”. Moreover, the “activity in xenograft model” value in [8] is listed as “highly active”. Also, the “highly active in xenograft model” value in data set [9] is “not”. Further, the “plasma concentration required for tumor regression” value with RS4;11 ALL model (maintained for 12 to 22 hours) was “above 0.01 uM”. Also, in the data set on RS4;11 ALL model (single dose at 3 mg/kg), the median survival is on record as 50 days. In addition, in the data set with MV4;11 AML model (single dose at 3 mg/kg), the complete responses is listed as 5 of 6. Also, in the data set on MV4;11 AML model (single dose at 3 mg/kg, 80 days post dosing), the tumor-free on study is reported as 4 of 6. For the same compound, the “degradation of MDM2 in tumors” value on MDM2 is listed as “robust degradation”. The “proteomics biomarkers p53, p21 (cell cycle arrest marker) and PHLDA3 (apoptotic marker)” value in data set [10] is on record as “upregulation”. Further, the “activation of the p53 pathway and induction of CC-3 (IHC)” value was “more robust activation of the p53 pathway and induction of cleaved caspase-3 (CC-3)” in data set [11] (single dose versus exposure-matched weekly dosing); “robust activation of the p53 pathway and induction of cleaved caspase-3 (CC-3)” in [12] (single dose). In [12] (exposure-matched weekly dosing), the “robust activation of the p53 pathway and induction of CC-3 (IHC)” value was “not”. In addition, in data set [13] (RS4;11 tumors), the “plasma concentration required for induction of the apoptotic gene BBC3” value is reported as “above 0.02 uM”. In [13] (exposure-matched weekly dosing, n=3/group), the “increase in apoptotic markers (qPCR)” value is “only a moderate increase”. Moreover, the “induction of the apoptotic gene BBC3 (qPCR)” value in data set [13] (single doses that lead to tumor regression, n=3/group) was “robust induction”.

As for `CC1(C)CCC2(CC1)N[C@@H](C(=O)N[C@@H]1CC[C@@H](C(N)=O)OC1)[C@H](c1ccnc(Cl)c1F)[C@]21C(=O)Nc2cc(Cl)ccc21` [DS-3032, Milademetan, reference compound], in the data set with RS4;11 ALL model (clinically equivalent dosing regimen (3 days on/11 days off)), the median survival was determined as 12 days. Further, the complete responses entry with MV4;11 AML model (clinically equivalent dose and regimen, n=6 animals/group) is “No complete responses”. Besides, the figures for the “induction of CC-3 (IHC)” value in [11] (treatment with the SMI) and in data set [12] (similar to the lower weekly dosing regimen of Compound A) were “not observed” and “modest”, respectively.

With `Nc1ccn([C@@H]2O[C@H](CO)[C@@H](O)[C@@H]2O)c(=O)n1` [cytarabine], the anti-tumor activity entry in the data set with MOLM-13 xenograft model (combination of cytarabine and venetoclax) is reported as “no significant anti-tumor activity”; in the data set on MOLM-13 xenograft model (cytarabine alone), “no significant anti-tumor activity”.
